{"source": "the supplement of paper PMC10307832", "assay_in_all_cases": "relative viability (nuclei count vs DMSO), 5 days (fraction); higher = more cells survive", "key": {"NCI-H2085": {"tested_on": "NCI-H2085", "method_in_brief": "(§1)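 Relative viability equals treated-well nuclei counts divided by vehicle-well nuclei counts. Counts came from 4× images of lung cancer cell lines grown in 1536-well plates for 5 days after pin-tool dosing on the day after seeding. Dosing used one drug alone or a fixed anchor-drug dose plus five library-drug doses (not always all listed) in √10 steps, and values are medians of duplicate plates.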"}, "NCI-H2228": {"tested_on": "NCI-H2228", "method_in_brief": "as §1"}, "NCI-H2347": {"tested_on": "NCI-H2347", "method_in_brief": "as §1"}, "NCI-H3122": {"tested_on": "NCI-H3122", "method_in_brief": "as §1"}, "NCI-H322M": {"tested_on": "NCI-H322M", "method_in_brief": "as §1"}, "NCI-H441": {"tested_on": "NCI-H441", "method_in_brief": "as §1"}, "NCI-H460": {"tested_on": "NCI-H460", "method_in_brief": "as §1"}, "NCI-H520": {"tested_on": "NCI-H520", "method_in_brief": "as §1"}, "NCI-H596": {"tested_on": "NCI-H596", "method_in_brief": "as §1"}, "NCI-H838": {"tested_on": "NCI-H838", "method_in_brief": "as §1"}, "SW 1573": {"tested_on": "SW 1573", "method_in_brief": "as §1"}}, "data": [{"compound": "O=C(O)CCCCC(CCSCc1ccccc1)SCc1ccccc1", "note": "(stereo not drawn) [CPI-613] + CC1(C)CCC(c2ccc(Cl)cc2)=C(CN2CCN(c3ccc(C(=O)NS(=O)(=O)c4ccc(N[C@H](CCN5CCOCC5)CSc5ccccc5)c(S(=O)(=O)C(F)(F)F)c4)cc3)CC2)C1 [Navitoclax] (partner 0.5 µM)", "values": [{"measurement": "relative viability", "setting": "NCI-H2085; first compound 50 µM", "value": 1.07}, {"measurement": "relative viability", "setting": "NCI-H2085; first compound 158.11 µM", "value": 0.543}, {"measurement": "relative viability", "setting": "NCI-H2085; first compound 500 µM", "value": 0.196}, {"measurement": "relative viability", "setting": "NCI-H2228; first compound 5 µM", "value": 1.04}, {"measurement": "relative viability", "setting": "NCI-H2228; first compound 15.81 µM", "value": 0.755}, {"measurement": "relative viability", "setting": "NCI-H2228; first compound 50 µM", "value": 0.758}, {"measurement": "relative viability", "setting": "NCI-H2228; first compound 158.11 µM", "value": 0.297}, {"measurement": "relative viability", "setting": "NCI-H2228; first compound 500 µM", "value": 0.0138}, {"measurement": "relative viability", "setting": "NCI-H2347; first compound 5 µM", "value": 0.748}, {"measurement": "relative viability", "setting": "NCI-H2347; first compound 15.81 µM", "value": 0.747}, {"measurement": "relative viability", "setting": "NCI-H2347; first compound 50 µM", "value": 0.702}, {"measurement": "relative viability", "setting": "NCI-H2347; first compound 158.11 µM", "value": 0.768}, {"measurement": "relative viability", "setting": "NCI-H2347; first compound 500 µM", "value": 0.734}, {"measurement": "relative viability", "setting": "NCI-H3122; first compound 5 µM", "value": 0.992}, {"measurement": "relative viability", "setting": "NCI-H3122; first compound 15.81 µM", "value": 1.06}, {"measurement": "relative viability", "setting": "NCI-H3122; first compound 50 µM", "value": 0.988}, {"measurement": "relative viability", "setting": "NCI-H3122; first compound 158.11 µM", "value": 0.571}, {"measurement": "relative viability", "setting": "NCI-H3122; first compound 500 µM", "value": 0.0262}, {"measurement": "relative viability", "setting": "NCI-H322M; first compound 5 µM", "value": 1.21}, {"measurement": "relative viability", "setting": "NCI-H322M; first compound 15.81 µM", "value": 1.17}, {"measurement": "relative viability", "setting": "NCI-H322M; first compound 50 µM", "value": 1.27}, {"measurement": "relative viability", "setting": "NCI-H322M; first compound 158.11 µM", "value": 1.05}, {"measurement": "relative viability", "setting": "NCI-H322M; first compound 500 µM", "value": 0.982}, {"measurement": "relative viability", "setting": "NCI-H441; first compound 5 µM", "value": 0.564}, {"measurement": "relative viability", "setting": "NCI-H441; first compound 15.81 µM", "value": 0.805}, {"measurement": "relative viability", "setting": "NCI-H441; first compound 50 µM", "value": 0.731}, {"measurement": "relative viability", "setting": "NCI-H441; first compound 158.11 µM", "value": 0.186}, {"measurement": "relative viability", "setting": "NCI-H441; first compound 500 µM", "value": 0.0161}, {"measurement": "relative viability", "setting": "NCI-H460; first compound 5 µM", "value": 1.12}, {"measurement": "relative viability", "setting": "NCI-H460; first compound 15.81 µM", "value": 1.09}, {"measurement": "relative viability", "setting": "NCI-H460; first compound 50 µM", "value": 1.03}, {"measurement": "relative viability", "setting": "NCI-H460; first compound 158.11 µM", "value": 0.29}, {"measurement": "relative viability", "setting": "NCI-H460; first compound 500 µM", "value": 0.0105}, {"measurement": "relative viability", "setting": "NCI-H520; first compound 5 µM", "value": 0.932}, {"measurement": "relative viability", "setting": "NCI-H520; first compound 15.81 µM", "value": 1.1}, {"measurement": "relative viability", "setting": "NCI-H520; first compound 50 µM", "value": 1.18}, {"measurement": "relative viability", "setting": "NCI-H520; first compound 158.11 µM", "value": 0.355}, {"measurement": "relative viability", "setting": "NCI-H520; first compound 500 µM", "value": 0.154}, {"measurement": "relative viability", "setting": "NCI-H596; first compound 5 µM", "value": 1.01}, {"measurement": "relative viability", "setting": "NCI-H596; first compound 15.81 µM", "value": 0.925}, {"measurement": "relative viability", "setting": "NCI-H596; first compound 50 µM", "value": 1.11}, {"measurement": "relative viability", "setting": "NCI-H596; first compound 158.11 µM", "value": 0.362}, {"measurement": "relative viability", "setting": "NCI-H596; first compound 500 µM", "value": 0.0344}, {"measurement": "relative viability", "setting": "NCI-H838; first compound 5 µM", "value": 1.12}, {"measurement": "relative viability", "setting": "NCI-H838; first compound 15.81 µM", "value": 1.01}, {"measurement": "relative viability", "setting": "NCI-H838; first compound 50 µM", "value": 1.03}, {"measurement": "relative viability", "setting": "NCI-H838; first compound 158.11 µM", "value": 0.39}, {"measurement": "relative viability", "setting": "NCI-H838; first compound 500 µM", "value": 0.113}, {"measurement": "relative viability", "setting": "SW 1573; first compound 5 µM", "value": 0.871}, {"measurement": "relative viability", "setting": "SW 1573; first compound 15.81 µM", "value": 0.962}, {"measurement": "relative viability", "setting": "SW 1573; first compound 50 µM", "value": 0.792}, {"measurement": "relative viability", "setting": "SW 1573; first compound 158.11 µM", "value": 0.819}, {"measurement": "relative viability", "setting": "SW 1573; first compound 500 µM", "value": 0.904}]}]}
